Results on six compounds are retold here after paper PMC3477139 (PLoS ONE, 2012).

The subject of data set [1] is GLP-1R. The following applies: intact GLP-1; ref [16], [18], [30], [40]; cited from earlier work.
For another data set, the system named is type 2 diabetes. The following applies: exogenous GLP-1; ref [11]; cited from earlier work. From the text:
GLP-1 is generated within intestinal L-cells by the a ...

The subject of another data set is β2-adrenoceptors. Put plainly: cAMP accumulation via β2-adrenoceptors in HEK-GLP-1R cells. The format is cell-based. The following applies: isoproterenol 100 µM, IBMX, 5% DMSO. Here is the method:
Ligands or vehicle control (40 µl) were added and reactions terminated after the appropriate times by replacement of the aqueous phase with ice-cold 0.5 M trichloroacetic acid. […] Reactions were terminated as above.
(§1) The cAMP was extracted from either intact cell or membrane preparations using a method identical to that for extraction of Ins(1,4,5)P3 [22]. Levels of cAMP were then determined by a competitive radioreceptor assay using binding protein purified from bovine adrenal glands and related to cellular protein assessed by Bradford assay.
All data are mean±/+s.e.m., n = 3–4, *** P<0.001 and ** P<0.01 by Bonferroni's multiple range test. For clarity only differences between ‘numerical’ and ‘co-addition’ conditions are shown.

Data set [2] addresses GLP-1 7-36 amide 7-36 (Homo sapiens) (UniProt P01275). The following applies: cited from earlier work.
For data set [3] the following is noted: in vivo, cited from earlier work. The source says: (§2) Such proteolysis is thought to remove biological activity.
Data set [4] has as its system GLP-1R. The conditions noted are these: ref [9]; cited from earlier work.
Text: as §2

The subject of a further data set is adenylyl cyclase. Put plainly: cAMP generation by direct activation of adenylyl cyclase with forskolin. Format: biochemical. The following applies: membranes from HEK-GLP-1R cells, 5 min, 30°C, IBMX. Here is the method:
Generation of cAMP by cell membranes was determined based on previously published methods, [21]. Membranes were prepared from confluent cell monolayers grown in 80 cm^2 flasks. Cells were washed with 5 ml HBS (154 mM NaCl, 10 mM HEPES, pH 7.4, 37°C), detached using harvesting buffer (154 mM NaCl, 10 mM HEPES, 5.4 mM EDTA, pH 7.4, 37°C) and collected by centrifugation (200 g, 2 min, 4°C). The cell pellet was resuspended in 1 ml of homogenization buffer (10 mM HEPES, 10 mM EDTA, pH 7.4) and sonicated (Sonifier Ultrasonic Cell Disruptor; Branson, CT) at 30% of the maximal amplitude for 3×5 s at ∼30 s intervals before centrifugation (30,000 g, 4°C, 10 min). After removal of the supernatant, pellets were collected in resuspension buffer (10 mM HEPES, 0.1 mM EDTA, pH 7.4), protein concentration adjusted to 1 mg/ml and stored in aliquots at −80°C until assay. Generation of cAMP was determined in 100 µl containing: 10 mM HEPES, 12 mM MgCl2, 60 mM NaCl, 1.2 mM EDTA, 1.2% w/v BSA, 5% DMSO, 480 µM ATP, 2 mM IBMX, 10 µM GTP, 20 µg membrane and ligands as indicated. […]
as §1

Data set [5] concerns the target T1, human GLP-1R (Homo sapiens, UniProt P43220).
T1 construct: expressed in transfected cells; vector pcDNA5/FRT
Put plainly: cAMP generation in intact HEK-GLP-1R cells. Format: cell-based. The conditions noted are these: IBMX; for EC50: pEC50 of the GLP-1 9–36 amide response (cAMP), 15 min, mean±s.e.m., n = 4. Here is the method: (§3) HEK-Flp-In cells with stable recombinant expression of the human GLP-1R (HEK-GLP-1R) were cultured in DMEM with high glucose supplemented with 10% FBS, 100 µg/ml streptomycin and 100 units/ml penicillin sulphate. These cells were originally generated by transfection of HEK-Flp-In cells (Invitrogen: Paisley, U.K.) with pcDNA5/FRT containing the human GLP-1R. […] INS-1E cells were kindly provided by Prof. C.B. Wollheim of the University of Geneva, Switzerland [19]. These cells were used between passages 65–90 and cultured in RPMI media containing 11.1 mM glucose, 5% heat-inactivated FBS, 100 µg/ml streptomycin, 100 units/ml penicillin sulphate, 100 units/ml neomycin, 50 µM β-mercaptoethanol, 10 mM HEPES and 1 mM sodium pyruvate. All cells were cultured at 37°C in a 5% CO2 humidified atmosphere and passaged at confluence.
(§4) Confluent monolayers of HEK-GLP-1R cells cultured in 24-well plates pre-coated with poly-D-lysine (0.1% w/v) where washed twice with 0.5 ml Krebs-HEPES buffer (KHB, composition: 10 mM HEPES; 4.2 mM NaHCO3; 11.7 mM D-glucose; 1.18 mM MgSO4·7H2O; 1.18 mM KH2PO4; 4.69 mM KCl; 118 mM NaCl; 1.3 mM CaCl2·2H2O; pH 7.4) containing 0.1% (w/v) BSA (KHB-BSA) before incubation (10 min, 37°C) in 360 µl KHB-BSA containing 500 µM isobutylmethylxanthine (IBMX). Ligands or vehicle control (40 µl) were added and reactions terminated after the appropriate times by replacement of the aqueous phase with ice-cold 0.5 M trichloroacetic acid. INS-1E cells grown to confluence in 24-well plates were treated similarly with the exception that after washing in KHB, cells were incubated in 200 µl KHB-BSA containing 1.4 mM glucose without IBMX for 2 h followed by challenge with ligands (or vehicle) for 15 min at 37°C in 400 µl KHB-BSA, in the presence of 10 mM glucose and 500 µM IBMX. Reactions were terminated as above.
as §1
(§5) Concentration-response curves were fitted using GraphPad Prism (GraphPad Software Inc., CA) using a standard four parameter logistic equation. All data are representative of n≥3 or are presented as mean+/±s.e.m., where n = 3 unless otherwise stated. Statistical analysis was by oneway ANOVA and where P<0.05, followed by Bonferroni's or Dunnett's multiple range test as indicated. Alternatively analysis was performed by Student's t-test. Where potency estimates are given these are pEC50 values (−log10 of the molar concentration giving 50% of the maximal response).

In data set [6] the target is T1, human GLP-1R. Put plainly: cAMP generation by membranes from HEK-GLP-1R cells. The conditions noted are these: read-out: Emax as % of the GLP-1 7–36 amide response, cAMP (membranes); 5 min, 30°C, IBMX. The format is biochemical. Here is the method:
as §1, §5

The target in data set [7] is T2, GLP-1R (native, rat insulinoma cell line INS-1E) (Rattus norvegicus, UniProt P32301).
T2 construct: the rat insulinoma cell line, INS-1E, with native expression of the GLP-1R; endogenous in cells; host or cells: INS-1E rat insulinoma cells (gift of Prof. C.B. Wollheim)
T2 sequence (P32301 22-463): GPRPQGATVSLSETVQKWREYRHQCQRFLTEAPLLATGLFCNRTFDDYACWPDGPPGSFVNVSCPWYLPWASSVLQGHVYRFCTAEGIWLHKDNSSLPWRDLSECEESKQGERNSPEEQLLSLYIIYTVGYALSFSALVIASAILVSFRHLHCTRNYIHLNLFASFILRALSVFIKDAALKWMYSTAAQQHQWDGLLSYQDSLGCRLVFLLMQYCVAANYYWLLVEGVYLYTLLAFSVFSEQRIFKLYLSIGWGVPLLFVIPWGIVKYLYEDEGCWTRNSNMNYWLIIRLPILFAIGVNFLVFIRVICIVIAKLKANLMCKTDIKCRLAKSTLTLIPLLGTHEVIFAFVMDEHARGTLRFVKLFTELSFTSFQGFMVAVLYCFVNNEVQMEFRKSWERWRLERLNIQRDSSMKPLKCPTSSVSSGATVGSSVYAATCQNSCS
Put plainly: cAMP generation in INS-1E cells. The format is cell-based. The conditions noted are these: INS-1E, read-out: Emax as % of that evoked by GLP-1 7–36 amide, cAMP (INS-1E), in the presence of compound 2. Here is the method: as §3, §4, §1, §5

Data set [8] addresses T1, human GLP-1R. The experiment in a line: ERK activation (phospho-ERK Western blot) in HEK-GLP-1R cells. The following applies: GLP-1 9–36 amide (1 µM) + compound 2 (0.1 µM to 1 µM), 5 min; n = 3. The format is cell-based. Here is the method: as §5
A general note: A western blot detects proteins with antibodies after separation by electrophoresis.

T1 sequence (P43220 24-463): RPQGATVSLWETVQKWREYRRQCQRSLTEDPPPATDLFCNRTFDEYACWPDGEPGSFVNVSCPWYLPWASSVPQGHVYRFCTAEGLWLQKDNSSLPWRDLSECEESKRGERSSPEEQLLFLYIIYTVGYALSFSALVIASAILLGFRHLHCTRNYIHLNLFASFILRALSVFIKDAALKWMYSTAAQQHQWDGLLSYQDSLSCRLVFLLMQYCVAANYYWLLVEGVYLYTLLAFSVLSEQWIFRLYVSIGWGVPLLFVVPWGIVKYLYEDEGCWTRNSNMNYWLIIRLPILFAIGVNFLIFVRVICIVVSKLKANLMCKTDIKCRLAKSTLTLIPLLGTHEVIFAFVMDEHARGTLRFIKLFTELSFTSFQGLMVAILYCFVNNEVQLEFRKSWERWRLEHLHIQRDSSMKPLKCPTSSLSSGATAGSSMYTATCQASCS
Sequence of GLP-1R (P43220 24-463): as above
Sequence of GLP-1 7-36 amide 7-36 (Homo sapiens) (P01275 7-36): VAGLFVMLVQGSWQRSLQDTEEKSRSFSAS

Glucagon-like peptide-1 [GLP-1]: in the data set on GLP-1R [1], the “affinity at the GLP-1R” value was “nanomolar to sub-nanomolar affinity”. In addition, in the data set on type 2 diabetes, the “effect on insulin secretion and hyperglycaemia in type 2 diabetes” value is “potentiates glucose-dependent insulin secretion and can normalize hyperglycaemia in type 2 diabetes”.

For the compound `CC(C)NCC(O)c1ccc(O)c(O)c1` (stereo not shown) [isoproterenol], in the data set on β2-adrenoceptors, the “cAMP accumulation (in words)” value is on record as “stimulation of cAMP accumulation”.

For orientation: Kd means the constant that tells how readily two partners part at equilibrium. Regarding GLP-1R (from UniProt P43220), the dissociation constant Kd in data set [2] is 1 nM.

In the case of “GLP-1 7–37: generated from proglucagon by prohormone convertase 1/3”, in [3], the fasting plasma concentration is reported as less than 10 pM and the “plasma concentration following a meal” value was roughly 10 pM. Besides, in the data set on GLP-1R [4], the “relative potency at the GLP-1R” value is “essentially equipotent”.

On to `C=C[C@@]1(C)CC(=O)[C@]2(O)[C@@]3(C)[C@@H](O)CCC(C)(C)[C@@H]3[C@H](O)[C@H](OC(C)=O)[C@@]2(C)O1` [forskolin], for which, in the data set on adenylyl cyclase, the “cAMP generation by forskolin (in words)” value was “robustly increased cAMP generation”.

A word on the EC50: it is the midpoint of the concentration-response curve. Read a high EC50 as lower potency in that assay. Broadly, the Emax is the maximal effect, on the per cent scale that the assay sets. `CC[C@H](C)[C@H](NC(=O)[C@H](Cc1ccccc1)NC(=O)[C@H](CCC(=O)O)NC(=O)[C@H](CCCCN)NC(=O)[C@H](C)NC(=O)[C@H](C)NC(=O)[C@H](CCC(N)=O)NC(=O)CNC(=O)[C@H](CCC(=O)O)NC(=O)[C@H](CC(C)C)NC(=O)[C@H](Cc1ccc(O)cc1)NC(=O)[C@H](CO)NC(=O)[C@H](CO)NC(=O)[C@@H](NC(=O)[C@H](CC(=O)O)NC(=O)[C@H](CO)NC(=O)[C@@H](NC(=O)[C@H](Cc1ccccc1)NC(=O)[C@@H](NC(=O)CNC(=O)[C@@H](N)CCC(=O)O)[C@@H](C)O)[C@@H](C)O)C(C)C)C(=O)N[C@@H](C)C(=O)N[C@@H](Cc1c[nH]c2ccccc12)C(=O)N[C@@H](CC(C)C)C(=O)N[C@H](C(=O)N[C@@H](CCCCN)C(=O)NCC(=O)N[C@@H](CCCNC(=N)N)C(N)=O)C(C)C` [GLP-1 9–36 amide, Glucagon-like peptide-1 9–36 amide]: the 50% effective concentration (EC50) was 309 nM on human GLP-1R [5] (compound 2: 0 µM); 85.1 nM on human GLP-1R [5] (compound 2: 0.03 µM); 32.4 nM on human GLP-1R [5] (compound 2: 0.1 µM, ** P<0.01 versus 0 µM compound 2); 8.91 nM at human GLP-1R [5] (compound 2: 0.3 µM, *** P<0.001 versus 0 µM compound 2); 5.25 nM on human GLP-1R [5] (compound 2: 1.0 µM, *** P<0.001 versus 0 µM compound 2); 3.89 nM on human GLP-1R [5] (compound 2: 3.0 µM, *** P<0.001 versus 0 µM compound 2). Also, the Emax was 18% at human GLP-1R [5] (read-out: Emax as % of the GLP-1 7–36 amide response, cAMP, no pretreatment, 15 min challenge); 23% on human GLP-1R [6]; roughly 50% in [7]. Also, at human GLP-1R [8], the “ERK activation in excess of the sum of the responses to the ligands alone” value is 45–69%. Further, the “peak plasma level, oral glucose tolerance test” value in data set [3] (po) was roughly 60 pM.
